{"source": "ChEMBL document CHEMBL5614414", "about": "“Discovery of novel arylpyridine derivatives for motile ciliogenesis” (Eur J Med Chem, 2024)", "key": {"[1]": {"organism": "Danio rerio", "experiment": "Ex vivo activation of Foxj1-mediated motile ciliogenesis pathway in Tg(foxj1a:eGFP)hsc16 zebrafish TL embryo assessed as EGFP expression in spinal ependymal cells at 5 uM incubated for 24 hrs by fluorescent stereomicroscope analysis", "format": "functional, cell-based"}, "[2]": {"organism": "Danio rerio", "experiment": "Ex vivo activation of Foxj1-mediated motile ciliogenesis pathway in Tg(foxj1a:eGFP)hsc16 zebrafish TL embryo assessed as EGFP expression in spinal ependymal cells at 2.5 uM incubated for 24 hrs by fluorescent stereomicroscope analysis", "format": "functional, cell-based"}, "[3]": {"experiment": "Cytotoxicity against mouse L929 cells", "format": "toxicity, cell-based"}, "[4]": {"experiment": "Metabolic stability in rat liver microsomes assessed as compound remaining incubated for 30 mins", "format": "ADME, Microsome", "settings": "read-out: Stability"}, "[5]": {"experiment": "Cytotoxicity against African green monkey Vero cells", "format": "toxicity, cell-based, Chlorocebus sabaeus"}, "[6]": {"target": "Cytochrome P450 2C19 (Homo sapiens, UniProt P33261)", "sequence (P33261 whole entry)": "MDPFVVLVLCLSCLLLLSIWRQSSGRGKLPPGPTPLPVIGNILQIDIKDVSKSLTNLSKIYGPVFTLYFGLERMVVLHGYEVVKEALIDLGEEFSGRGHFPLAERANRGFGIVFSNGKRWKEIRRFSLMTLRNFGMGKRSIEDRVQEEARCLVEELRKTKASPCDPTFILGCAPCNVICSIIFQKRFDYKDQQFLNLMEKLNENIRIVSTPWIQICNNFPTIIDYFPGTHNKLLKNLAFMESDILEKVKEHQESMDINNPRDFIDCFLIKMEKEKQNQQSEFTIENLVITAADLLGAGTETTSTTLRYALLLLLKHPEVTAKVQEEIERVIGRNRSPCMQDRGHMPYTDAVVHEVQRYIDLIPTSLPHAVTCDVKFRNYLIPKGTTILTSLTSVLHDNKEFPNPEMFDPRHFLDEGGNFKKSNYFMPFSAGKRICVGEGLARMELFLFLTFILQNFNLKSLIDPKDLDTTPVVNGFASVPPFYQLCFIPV", "experiment": "Inhibition of human CYP2C19 using amitriptyline as substrate relative to control", "format": "ADME"}, "[7]": {"experiment": "Volume of distribution at steady state in male mouse at 1 mg/kg, iv", "format": "ADME, organism-based", "settings": "in vivo, read-out: Vdss"}, "[8]": {"experiment": "Metabolic stability in mouse liver microsomes assessed as compound remaining incubated for 30 mins", "format": "ADME, Microsome", "settings": "read-out: Stability"}, "[9]": {"experiment": "Half life in male mouse at 5 mg/kg, po", "format": "ADME, organism-based", "settings": "in vivo"}, "[10]": {"tested_on": "mTEC", "experiment": "Ex vivo activation of Foxj1-mediated motile ciliogenesis pathway in wild type C57BL/6 mTEC (mouse tracheal epithelial cells) assessed as increase in multiciliated cells at 5 uM administered for 4 days starting from airlift interface day 0 with replacement of fresh media for every two days by DAPI staining based confocal laser microscopic analysis", "format": "functional, cell-based", "settings": "time 4.0 day"}, "[11]": {"target": "T1, Cytochrome P450 1A2 (Homo sapiens, UniProt P05177)", "T1 sequence (P05177 whole entry)": "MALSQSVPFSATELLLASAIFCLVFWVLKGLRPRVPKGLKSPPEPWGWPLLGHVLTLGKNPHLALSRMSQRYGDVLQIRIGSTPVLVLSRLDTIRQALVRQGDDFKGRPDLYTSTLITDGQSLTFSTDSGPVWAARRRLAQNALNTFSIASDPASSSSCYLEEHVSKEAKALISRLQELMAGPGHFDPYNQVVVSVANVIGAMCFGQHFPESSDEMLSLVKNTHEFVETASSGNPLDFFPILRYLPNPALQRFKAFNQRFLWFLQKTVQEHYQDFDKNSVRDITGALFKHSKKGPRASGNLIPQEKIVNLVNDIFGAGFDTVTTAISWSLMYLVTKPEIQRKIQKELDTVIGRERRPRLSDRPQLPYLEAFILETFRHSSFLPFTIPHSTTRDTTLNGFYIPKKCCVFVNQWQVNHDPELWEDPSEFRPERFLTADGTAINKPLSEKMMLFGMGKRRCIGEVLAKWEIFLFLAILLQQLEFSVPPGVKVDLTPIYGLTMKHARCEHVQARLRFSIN", "experiment": "Inhibition of human CYP1A2 using alpha-naphthoflavone as […] relative to control", "format": "ADME"}, "[12]": {"experiment": "Cytotoxicity against human HFL1 cells", "format": "toxicity, cell-based"}, "[13]": {"experiment": "Half life in male mouse at 1 mg/kg, iv", "format": "ADME, organism-based", "settings": "in vivo"}, "[14]": {"target": "Cytochrome P450 3A4 (Homo sapiens, UniProt P08684)", "sequence (P08684 whole entry)": "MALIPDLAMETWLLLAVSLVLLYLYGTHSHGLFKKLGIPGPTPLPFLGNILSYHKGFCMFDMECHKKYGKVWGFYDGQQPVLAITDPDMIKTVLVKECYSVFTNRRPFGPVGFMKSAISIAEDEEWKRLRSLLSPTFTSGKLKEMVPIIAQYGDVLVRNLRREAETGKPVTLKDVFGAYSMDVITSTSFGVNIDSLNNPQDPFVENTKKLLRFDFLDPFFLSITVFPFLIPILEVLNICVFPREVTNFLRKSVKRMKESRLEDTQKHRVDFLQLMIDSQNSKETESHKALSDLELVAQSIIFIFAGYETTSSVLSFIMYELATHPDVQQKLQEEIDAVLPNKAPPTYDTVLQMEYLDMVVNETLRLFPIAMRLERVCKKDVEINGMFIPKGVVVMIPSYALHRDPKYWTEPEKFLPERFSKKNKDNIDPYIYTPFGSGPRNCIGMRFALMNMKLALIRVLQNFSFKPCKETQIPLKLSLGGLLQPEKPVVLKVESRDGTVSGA", "experiment": "Inhibition of human CYP3A4 using ketoconazole as […] relative to control", "format": "ADME"}, "[15]": {"tested_on": "Mus musculus", "experiment": "Restoration of motile cilia in porcine pancreatic elastase-induced COPD C57BL/6 mouse model assessed as decrease in airway damage in trachea at 2 mg/kg, ip administered every other day for 2 weeks and measured 24 hrs post last dose by DAPI staining based confocal microscopic analysis", "format": "functional, organism-based"}, "[16]": {"experiment": "Metabolic stability in human liver microsomes assessed as compound remaining incubated for 30 mins", "format": "ADME, Microsome", "settings": "read-out: Stability"}, "[17]": {"target": "Cytochrome P450 2C9 (Homo sapiens, UniProt P11712)", "sequence (P11712 whole entry)": "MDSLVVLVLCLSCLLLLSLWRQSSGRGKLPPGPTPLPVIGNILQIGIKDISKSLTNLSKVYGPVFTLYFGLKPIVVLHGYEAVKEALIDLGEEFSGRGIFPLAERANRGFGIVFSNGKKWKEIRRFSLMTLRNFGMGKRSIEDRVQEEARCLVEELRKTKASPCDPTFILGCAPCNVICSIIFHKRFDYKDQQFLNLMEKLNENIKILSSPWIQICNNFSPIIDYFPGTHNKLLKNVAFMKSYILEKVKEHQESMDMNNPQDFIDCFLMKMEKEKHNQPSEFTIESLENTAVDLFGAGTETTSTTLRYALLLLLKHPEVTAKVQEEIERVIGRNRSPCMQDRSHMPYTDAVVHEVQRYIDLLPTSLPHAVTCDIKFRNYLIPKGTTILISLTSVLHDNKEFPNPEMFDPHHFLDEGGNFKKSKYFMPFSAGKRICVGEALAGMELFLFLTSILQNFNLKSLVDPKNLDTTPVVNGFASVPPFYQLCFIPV", "experiment": "Inhibition of human CYP2C9 using sulfaphenazole as […] relative to control", "format": "ADME"}, "[18]": {"experiment": "AUCt in male mouse at 1 mg/kg, iv", "format": "ADME, organism-based", "settings": "in vivo"}, "[19]": {"tested_on": "Mus musculus", "experiment": "Restoration of motile cilia in porcine pancreatic elastase-induced COPD C57BL/6 mouse model assessed as increase in motile cilia in trachea at 2 mg/kg, ip administered every other day for 2 weeks and measured 24 hrs post last dose by DAPI staining based confocal microscopic analysis", "format": "functional, organism-based"}, "[20]": {"experiment": "Clearance in male mouse at 1 mg/kg, iv", "format": "ADME, organism-based", "settings": "in vivo"}, "[21]": {"experiment": "Tmax in male mouse at 5 mg/kg, po", "format": "ADME, organism-based", "settings": "in vivo"}, "[22]": {"target": "Cytochrome P450 2D6 (Homo sapiens, UniProt P10635)", "sequence (P10635 whole entry)": "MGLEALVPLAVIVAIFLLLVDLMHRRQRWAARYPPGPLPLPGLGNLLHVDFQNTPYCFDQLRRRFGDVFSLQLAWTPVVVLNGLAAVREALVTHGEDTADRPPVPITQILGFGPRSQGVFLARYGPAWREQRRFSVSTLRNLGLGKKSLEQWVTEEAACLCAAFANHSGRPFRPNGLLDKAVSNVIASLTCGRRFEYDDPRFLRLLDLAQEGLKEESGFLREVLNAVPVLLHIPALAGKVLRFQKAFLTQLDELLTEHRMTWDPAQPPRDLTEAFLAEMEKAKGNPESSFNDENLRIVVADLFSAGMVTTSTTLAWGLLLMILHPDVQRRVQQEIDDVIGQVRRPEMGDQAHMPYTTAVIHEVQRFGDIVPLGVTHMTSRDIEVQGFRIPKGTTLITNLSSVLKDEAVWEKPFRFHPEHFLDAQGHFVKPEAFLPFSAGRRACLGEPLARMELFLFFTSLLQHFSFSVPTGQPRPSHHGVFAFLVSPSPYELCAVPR", "experiment": "Inhibition of human CYP2D6 using quinidine as […] relative to control", "format": "ADME"}, "[23]": {"experiment": "AUCt in male mouse at 5 mg/kg, po", "format": "ADME, organism-based", "settings": "in vivo"}, "[24]": {"experiment": "Cytotoxicity against CHO-K1 cells", "format": "toxicity, cell-based, Cricetulus griseus", "settings": "Chinese hamster"}, "[25]": {"experiment": "Oral bioavailability in male mouse at 5 mg/kg", "format": "ADME, organism-based", "settings": "in vivo"}, "[26]": {"experiment": "AUCinfinity in male mouse at 1 mg/kg, iv", "format": "ADME, organism-based", "settings": "in vivo"}, "[27]": {"experiment": "Cytotoxicity against mouse NIH3T3 cells", "format": "toxicity, cell-based"}, "[28]": {"target": "hERG (Homo sapiens, UniProt Q12809)", "sequence (Q12809 whole entry)": "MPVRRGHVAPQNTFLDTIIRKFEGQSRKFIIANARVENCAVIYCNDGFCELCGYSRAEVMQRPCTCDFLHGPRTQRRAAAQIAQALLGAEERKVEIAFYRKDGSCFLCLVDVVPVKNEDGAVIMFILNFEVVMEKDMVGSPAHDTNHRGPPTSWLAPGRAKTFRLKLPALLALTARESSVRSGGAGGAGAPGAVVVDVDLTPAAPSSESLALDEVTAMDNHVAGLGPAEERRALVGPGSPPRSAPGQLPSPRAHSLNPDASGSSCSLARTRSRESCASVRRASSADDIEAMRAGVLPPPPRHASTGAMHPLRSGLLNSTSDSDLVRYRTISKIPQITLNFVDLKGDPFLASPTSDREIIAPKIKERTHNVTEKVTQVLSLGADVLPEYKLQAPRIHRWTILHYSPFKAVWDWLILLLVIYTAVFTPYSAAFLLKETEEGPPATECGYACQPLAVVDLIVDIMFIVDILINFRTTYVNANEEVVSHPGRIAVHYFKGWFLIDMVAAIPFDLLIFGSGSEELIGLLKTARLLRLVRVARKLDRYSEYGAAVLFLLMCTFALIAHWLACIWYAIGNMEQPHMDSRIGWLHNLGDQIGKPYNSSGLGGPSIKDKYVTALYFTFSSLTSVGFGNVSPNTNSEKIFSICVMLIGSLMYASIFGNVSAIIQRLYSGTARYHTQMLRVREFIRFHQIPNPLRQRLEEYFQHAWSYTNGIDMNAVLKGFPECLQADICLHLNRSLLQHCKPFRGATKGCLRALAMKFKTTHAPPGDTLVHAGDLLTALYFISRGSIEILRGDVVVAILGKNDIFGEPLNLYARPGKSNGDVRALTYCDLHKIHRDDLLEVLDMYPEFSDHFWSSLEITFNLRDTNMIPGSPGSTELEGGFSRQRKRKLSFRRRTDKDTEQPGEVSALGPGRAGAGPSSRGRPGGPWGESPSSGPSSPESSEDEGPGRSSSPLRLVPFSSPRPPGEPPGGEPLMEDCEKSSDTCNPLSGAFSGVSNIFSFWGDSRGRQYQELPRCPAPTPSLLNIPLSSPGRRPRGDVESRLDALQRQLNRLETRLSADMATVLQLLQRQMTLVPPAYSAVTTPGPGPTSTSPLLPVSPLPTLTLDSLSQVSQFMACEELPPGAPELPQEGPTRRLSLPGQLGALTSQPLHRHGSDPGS", "experiment": "Inhibition of hERG at 10 uM relative to control", "format": "toxicity"}, "[29]": {"experiment": "AUCinfinity in male mouse at 5 mg/kg, po", "format": "ADME, organism-based", "settings": "in vivo"}, "[30]": {"experiment": "Cmax in male mouse at 5 mg/kg, po", "format": "ADME, organism-based", "settings": "in vivo"}}, "note": "pIC50: −log10 of the molar value. Activity calls are given as the source filed them. The calls are words filed in the database; no cut-off is given here.", "data": [{"smiles": "CNc1ncc(-c2cccc(N)c2)cc1-c1nc2ccccc2o1", "values": [{"measurement": "Activity", "setting": "[1]", "value": "Active"}]}, {"smiles": "CC(C)(C)Nc1ncc(-c2ccoc2)cc1-c1nc2ccccc2o1", "values": [{"measurement": "Activity", "setting": "[1]", "value": "Active"}]}, {"smiles": "CCCCNc1ncc(-c2cccc(N)c2)cc1-c1nc2ccccc2o1", "values": [{"measurement": "Activity", "setting": "[1]", "value": "Active"}]}, {"smiles": "CC(C)(C)Nc1ncc(-c2ccsc2)cc1-c1nc2ccccc2o1", "values": [{"measurement": "Activity", "setting": "[1]", "value": "Active"}]}, {"smiles": "CN1CCN(c2ncc(-c3cccc(N)c3)cc2-c2nc3ccccc3o2)CC1", "values": [{"measurement": "Activity", "setting": "[1]", "value": "Active"}]}, {"smiles": "CC(CC(=O)O)n1cc(-c2cnc(NC(C)(C)C)c(-c3nc4ccccc4o3)c2)cn1", "note": "(configuration not stated)", "values": [{"measurement": "Activity", "setting": "[2]", "value": "Active"}]}, {"smiles": "Nc1cccc(-c2cnc(N3CCOCC3)c(-c3nc4ccccc4o3)c2)c1", "values": [{"measurement": "Activity", "setting": "[1]", "value": "Active"}]}, {"smiles": "Nc1cccc(-c2cnc(N)c(-c3nc4ccccc4o3)c2)c1", "values": [{"measurement": "Activity", "setting": "[1]", "value": "inactive"}]}, {"smiles": "CC(C)(C)Nc1ncc(-c2cnn(C(C)(C)CC(=O)O)c2)cc1-c1nc2ccccc2[nH]1", "values": [{"measurement": "Activity", "setting": "[1]", "value": "Active"}]}, {"smiles": "CC(C)(C)Nc1ncc(-c2cnn(CCC(=O)O)c2)cc1-c1nc2ccccc2o1", "values": [{"measurement": "Activity", "setting": "[2]", "value": "Active"}]}, {"smiles": "CC(C)(C)Nc1ncc(-c2ccccn2)cc1-c1nc2ccccc2o1", "values": [{"measurement": "Activity", "setting": "[1]", "value": "Active"}]}, {"smiles": "CC(C)(C)Nc1ncc(-c2ccccc2)cc1-c1nc2ccccc2o1", "values": [{"measurement": "Activity", "setting": "[1]", "value": "Active"}]}, {"smiles": "Nc1cccc(-c2cnc(N3CCNCC3)c(-c3nc4ccccc4o3)c2)c1", "values": [{"measurement": "Activity", "setting": "[1]", "value": "Active"}]}, {"smiles": "CC(C)(C)Nc1ncc(-c2cnn(C(C)(C)CC(=O)O)c2)cc1-c1nc2ccccc2o1", "values": [{"measurement": "pIC50", "setting": "[3]", "value": "< 4.00"}, {"measurement": "remaining at 0.5 h", "setting": "[4]", "value": "> 99.9", "unit": "%"}, {"measurement": "pIC50", "setting": "[5]", "value": "< 4.00"}, {"measurement": "inhibition (INH)", "setting": "[6]", "value": 17.4, "unit": "%"}, {"measurement": "Vd", "setting": "[7]", "value": 0.4, "unit": "L/kg"}, {"measurement": "remaining at 0.5 h", "setting": "[8]", "value": "> 99.9", "unit": "%"}, {"measurement": "half-life", "setting": "[9]", "value": 213, "unit": "min"}, {"measurement": "Activity", "setting": "[10]", "value": "Active"}, {"measurement": "inhibition (INH)", "setting": "[11]", "value": 1.17, "unit": "%"}, {"measurement": "pIC50", "setting": "[12]", "value": "< 4.00"}, {"measurement": "half-life", "setting": "[13]", "value": 211, "unit": "min"}, {"measurement": "inhibition (INH)", "setting": "[14]", "value": "< 1", "unit": "%"}, {"measurement": "Activity", "setting": "[15]", "value": "Active"}, {"measurement": "remaining at 0.5 h", "setting": "[16]", "value": "> 99.9", "unit": "%"}, {"measurement": "inhibition (INH)", "setting": "[17]", "value": 31.9, "unit": "%"}, {"measurement": "AUC(0-t)", "setting": "[18]", "value": 12500, "unit": "ng·h/mL"}, {"measurement": "Activity", "setting": "[1]", "value": "Active"}, {"measurement": "Activity", "setting": "[19]", "value": "Active"}, {"measurement": "clearance", "setting": "[20]", "value": 1.33, "unit": "mL/min/kg"}, {"measurement": "Tmax", "setting": "[21]", "value": 3.67, "unit": "h"}, {"measurement": "inhibition (INH)", "setting": "[22]", "value": "< 1", "unit": "%"}, {"measurement": "AUC(0-t)", "setting": "[23]", "value": 53100, "unit": "ng·h/mL"}, {"measurement": "Activity", "setting": "[2]", "value": "Active"}, {"measurement": "pIC50", "setting": "[24]", "value": "< 4.00"}, {"measurement": "bioavailability", "setting": "[25]", "value": 85, "unit": "%"}, {"measurement": "AUC(0-inf)", "setting": "[26]", "value": 12600, "unit": "ng·h/mL"}, {"measurement": "pIC50", "setting": "[27]", "value": "< 4.00"}, {"measurement": "inhibition at 10 µM", "setting": "[28]", "value": "< 1", "unit": "%"}, {"measurement": "AUC(0-inf)", "setting": "[29]", "value": 62900, "unit": "ng·h/mL"}, {"measurement": "Cmax", "setting": "[30]", "value": 5160, "unit": "ng/mL"}]}, {"smiles": "CC(C)(C)Nc1ncc(-c2cn[nH]c2)cc1-c1nc2ccccc2o1", "values": [{"measurement": "Activity", "setting": "[1]", "value": "Active"}]}, {"smiles": "CC(C)(C)Nc1ncc(-c2cccc(N)c2)cc1-c1nc2ccccc2o1", "values": [{"measurement": "Activity", "setting": "[1]", "value": "Active"}]}, {"smiles": "Nc1cccc(-c2cnc(N3CCCCC3)c(-c3nc4ccccc4o3)c2)c1", "values": [{"measurement": "Activity", "setting": "[1]", "value": "Active"}]}, {"smiles": "CC(C)(C)Nc1ncc(-c2cccnc2)cc1-c1nc2ccccc2o1", "values": [{"measurement": "Activity", "setting": "[1]", "value": "Active"}]}]}
